Measured values published in the supplement of paper PMC5908809.

Legend:
[1] = tested on: normal NK cells expanded with K562-aAPC; test: percent inhibition of viability; higher = more inhibition; settings: 72 h, IL-2 2.5 ng/mL
Protocol: (§1)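 Drug sensitivity and resistance testing on K562-aAPC-expanded normal NK cells: 5 concentrations (10-fold steps over a 10,000-fold range), 72 h at 37 °C, viability by CellTiter-Glo normalised to DMSO and benzethonium chloride controls; DSS from the fitted curve.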

[2] = tested on: DERL-7 (IL-2 2.5 ng/mL); test: as above; settings: 72 h
[3] = tested on: IMC-1 (IL-2 20 ng/mL); test: as above; settings: 72 h
[4] = tested on: KAI3 (IL-2 2.5 ng/mL); test: as above; settings: 72 h
[5] = tested on: KHYG-1 (IL-2 2.5 ng/mL); test: as above; settings: 72 h
[6] = tested on: NK-92 (IL-2 2.5 ng/mL); test: as above; settings: 72 h
[7] = tested on: NK-YS (IL-2 2.5 ng/mL); test: as above; settings: 72 h
[8] = tested on: NKL (IL-2 2.5 ng/mL); test: as above; settings: 72 h
[9] = tested on: SNK-6 (IL-2 2.5 ng/mL); test: as above; settings: 72 h
[10] = tested on: YT (IL-2 2.5 ng/mL); test: as above; settings: 72 h
[11] = tested on: normal primary NK cells, pool 1 (3 donors) (IL-2 2.5 ng/mL); test: as above; settings: 72 h
[12] = tested on: normal primary NK cells, pool 1 (3 donors), resting (IL-2 0 ng/mL); test: as above; settings: 72 h
[13] = tested on: normal primary NK cells, pool 2 (3 donors) (IL-2 2.5 ng/mL); test: as above; settings: 72 h
[14] = tested on: normal primary NK cells, pool 3 (3 donors) (IL-2 2.5 ng/mL); test: as above; settings: 72 h
[15] = tested on: normal NK cells expanded with K562-aAPC; test: drug sensitivity score (DSS) (DSS units); higher = more sensitive; extreme values may be limits of the assay; settings: 72 h; IL-2 2.5 ng/mL
Protocol: as §1

[16] = tested on: DERL-7 (IL-2 2.5 ng/mL); test: as above; settings: 72 h
[17] = tested on: IMC-1 (IL-2 20 ng/mL); test: as above; settings: 72 h
[18] = tested on: KAI3 (IL-2 2.5 ng/mL); test: as above; settings: 72 h
[19] = tested on: KHYG-1 (IL-2 2.5 ng/mL); test: as above; settings: 72 h
[20] = tested on: NK-92 (IL-2 2.5 ng/mL); test: as above; settings: 72 h
[21] = tested on: NK-YS (IL-2 2.5 ng/mL); test: as above; settings: 72 h
[22] = tested on: NKL (IL-2 2.5 ng/mL); test: as above; settings: 72 h
[23] = tested on: SNK-6 (IL-2 2.5 ng/mL); test: as above; settings: 72 h
[24] = tested on: YT (IL-2 2.5 ng/mL); test: as above; settings: 72 h
[25] = tested on: normal primary NK cells, pool 1 (3 donors) (IL-2 2.5 ng/mL); test: as above; settings: 72 h
[26] = tested on: normal primary NK cells, pool 1 (3 donors), resting (IL-2 0 ng/mL); test: as above; settings: 72 h
[27] = tested on: normal primary NK cells, pool 2 (3 donors) (IL-2 2.5 ng/mL); test: as above; settings: 72 h
[28] = tested on: normal primary NK cells, pool 3 (3 donors) (IL-2 2.5 ng/mL); test: as above; settings: 72 h

NC(=O)c1cccc(-c2cccc(OC(=O)NC3CCCCC3)c2)c1 [URB597] (max concentration tested 1000 nM)
percent inhibition of viability [%]
Settings	0.1 nM	1 nM	10 nM	100 nM	1000 nM
[1]	-5.77	-3.62	-1	7.42	7.56
[2]	11	4.35	12	5.02	5.08
[3]	-4	4.78	2.31	4	3.07
[4]	-3.62	-6.19	-2.65	-2.84	16.1
[5]	-1.98	3.31	2.01	2.83	7.66
[6]	1.97	3.05	12.2	-3.48	7.28
[7]	-1.3	0.73	8.14	5.17	8.51
[8]	3.64	0.02	13.3	15.1	14.2
[9]	-7.3	9.09	10.3	2.22	2.83
[10]	1.76	2.28	2.53	3.49	9.4
[11]	5.21	-3.54	1.12	-15.5	-7.59
[12]	-1.65	-9.18	1.01	-15.8	-6.01
[13]	-11.5	-5.88	15.1	-7.18	8.87
[14]	-10.1	-1.33	5.88	-9.83	6.07

Settings	drug sensitivity score
[15]	0
[16]	0
[17]	0
[18]	0.21
[19]	0
[20]	0
[21]	0
[22]	2.41
[23]	0
[24]	0
[25]	0
[26]	0
[27]	0
[28]	0

O=C(CCCCCCNC(=O)c1cnc(N(c2ccccc2)c2ccccc2)nc1)NO [Rocilinostat] (max concentration tested 10000 nM)
percent inhibition of viability [%]
Settings	1 nM	10 nM	100 nM	1000 nM	10000 nM
[1]	-3.43	-1.33	-2.48	24.8	99.9
[2]	-3.48	-3.35	-1.28	14.9	99.9
[3]	-4.44	-8.29	-0.57	8.19	100
[4]	0.64	-3.56	4.44	55.4	96.6
[5]	3.34	0.58	-3.42	47.2	101
[6]	-11.1	-18.3	11.4	41	102
[7]	2.13	-8.18	0.48	22.7	98.8
[8]	-10.5	-16	-8.09	62.8	104
[9]	-5.08	-17.2	-1.48	31.4	97.9
[10]	0.06	-7.38	-4.05	18.3	101
[11]	2.06	3.65	16.7	40.9	97.5
[12]	8.2	-4.24	18.1	59.2	90.9
[13]	-7.32	-6.43	5.49	23.4	94
[14]	-3.33	-0.54	6.26	8.12	96.7

Settings	drug sensitivity score
[15]	9.32
[16]	8.01
[17]	6.83
[18]	12
[19]	11.5
[20]	10.4
[21]	9.02
[22]	12.8
[23]	9.9
[24]	8.53
[25]	10.4
[26]	13.4
[27]	8.8
[28]	6.65
